What all share (type): cell-based, human
The test system of series [1] is tumor-organoids UHN6, UHN17, UHN3, UHN5 and UHN15 (primary PDAC). The series is described as follows: MTT assay of tumor-organoid cultures treated with drugs. From the text: (§1) (A) Time lapse imaging sequence of UHN6 derived organoids. (B) H&E, phase and immunofluorescence images for KRT19 (bright) and DAPI (dark) of images of tumor-organoids and their matched primary tumors. ((C) H&E images showing maintenance of inter-organoid heterogeneity in histoarchitecture representing variation in primary patient tumor. (D) Normalized MTT assay readings of organoid cultures treated with gemcitabine for 4 days. E) Normalized MTT assay readings of organoid cultures with gemcitabine and epigenetic inhibitor of the H3K27me3 writer EZH2 (UNC1999). (F) Normalized MTT reading of tumor-organoids treated with UNC199 alone. See online Methods for details. (G) Immunostaining for H3K27me3 (bright) in two primary patient tumors (top panel) and corresponding tumor-organoids (bottom panel). (H) Basal 02 consumption as measured by Seahorse™ flux analyzer with and without UNC1999 treatment. For MTT and oxygen consumptions experiments, data represent mean+/−S.D. P value (t-test, two tailed): N.S-, not significant; *−p=0.01-0.05; **−p=0.001-0.01; ***, p=<0.001 (n=3). All scale bars equal to 50 μm.
(§2) For MTT and oxygen consumptions experiments, data represent mean+/− S.D. P value (t-test, two tailed): N.S-, not significant; *−p=0.01-0.05; **−p=0.001-0.01; ***, p=<0.001 (n=3). (B) Immunostaining for H3K27me3 in control (DMSO) or UNC 1999-treated tumor-organoids. Scale bars, 50 μm. (C) Tumor-organoids (top panel) and primary tumors (bottom panel) derived from tumor UHN3, UHN 5 and UHN15, show consistent patient-specific variation in staining for H3K27me3. Scale bars, 50 μm.
For pancreas progenitor organoid culture, T9 cells were resuspended and plated in the PTOM (Pancreatic Progenitor and Tumor Organoid Media) containing DMEM with factors including serum-free supplements, FGFs, and insulin. The cells were plated on a bed of Matrigel as described before 3. At day 8 in 3D culture, replace culture medium with fresh POMM (Pancreatic Organoid Maintenance Media) (PTOM media without FGFs) with 5% Matrigel every 4 days. PODM I (Pancreatic Organoid Differentiation Media) contains DMEM with B27, 2-phospho ascorbic acid, FGF, EGF, TGF beta inhibitors. PODM II contains DMEM with B27, 2-phospho ascorbic acid, FGF, EGF. Fresh tissues of primary tumors from patients were washed twice with DMEM, digested with collagenase (Roche) and resuspended in PTOM. Tumor cells were then seeded in 3D culture chambers as described above. Culture media were replaced every 4 days. For serial passaging of organoids, day 16 organoids were treated with collagenase for 2 hours then further dissociated with trypsin for 10-30 minutes. Cells were collected and re-seeded in 3D culture following protocols as described above. […]
We analyzed five organoid cultures, UHN6, UHN17, UHN3, UHN5 and UHN15. […]

For another series, the system named is progenitor-organoids. Put plainly: Toxicity of epigenetic inhibitors to normal cells in progenitor-organoids. Conditions: compared with JQ1, LAQ824, SGC0946, data not shown. The method, then:
For pancreas progenitor organoid culture, T9 cells were resuspended and plated in the PTOM (Pancreatic Progenitor and Tumor Organoid Media) containing DMEM with factors including serum-free supplements, FGFs, and insulin. The cells were plated on a bed of Matrigel as described before 3. At day 8 in 3D culture, replace culture medium with fresh POMM (Pancreatic Organoid Maintenance Media) (PTOM media without FGFs) with 5% Matrigel every 4 days. PODM I (Pancreatic Organoid Differentiation Media) contains DMEM with B27, 2-phospho ascorbic acid, FGF, EGF, TGF beta inhibitors. PODM II contains DMEM with B27, 2-phospho ascorbic acid, FGF, EGF. Fresh tissues of primary tumors from patients were washed twice with DMEM, digested with collagenase (Roche) and resuspended in PTOM. Tumor cells were then seeded in 3D culture chambers as described above. Culture media were replaced every 4 days. For serial passaging of organoids, day 16 organoids were treated with collagenase for 2 hours then further dissociated with trypsin for 10-30 minutes. Cells were collected and re-seeded in 3D culture following protocols as described above. MCF-10A cells were obtained from ATCC. Gene expression data will be uploaded into NCBI's Gene Expression Omnibus (GEO). […]

Series [2] relates to H3K27me3 mark in UHN17 organoids. The series is described as follows: Immunostaining for H3K27me3 in control (DMSO) or UNC1999-treated tumor-organoids. Conditions: at concentrations with significant growth-inhibitory effects.
Text: as §2
Inhibitors of BET (JQ1), histone deacetylase (LAQ824), DOT1L (SGC0946), G9a (A366) and EZH2 (UNC1999) were tested in progenitor-organoids to investigate their toxicities to normal cells. […] A366 and UNC1999 were administered to organoid cultures in combination with the current standard of care, gemcitabine (See FIG. 6 legend and FIG. 12). Organoids were not sensitive to G9a inhibition (FIG. 12A).

The test system of series [3] is tumor-organoids UHN17, UHN3. The series is described as follows: Basal O2 consumption measured by Seahorse flux analyzer with and without UNC1999.
Text: as §1
Recent studies reveal a relationship between oxygenation and regulation of H3K27me3 epigenetic mark^28,29. […] We measured basal respiration rates to investigate if tumor-organoids show differences in oxygen consumption. […]

From patent publication US12247224B2, “Organoids for drug screening and personalized medicine” (SENTING, LLC, priority 2014, dated 2025) come the findings set out here.

The structures appear in SMILES notation.

Consider `Nc1ccn([C@@H]2O[C@H](CO)[C@@H](O)C2(F)F)c(=O)n1` [gemcitabine], for which, in series [1] (gemcitabine for 4 days, all five organoid cultures UHN6, UHN17, UHN3, UHN5, UHN15), the “growth inhibition in MTT assays” value is given as 30%.
Regarding `CCCc1cc(C)[nH]c(=O)c1CNC(=O)c1cc(-c2ccc(N3CCN(C(C)C)CC3)nc2)cc2c1cnn2C(C)C` [UNC1999], the “suppression of proliferation by EZH2 inhibition alone (MTT)” value in series [1] (UNC1999 alone, UHN17, UHN3, UHN5) was “effective in suppressing proliferation”. In addition, the “proliferation upon EZH2 inhibition compared to gemcitabine treatment alone (MTT)” value in series [1] (in combination with gemcitabine, UHN17, UHN3, UHN5, UHN15) is on record as “dose-dependent decreases in proliferation”. Also, the “toxicity to normal cells” value in the series on progenitor-organoids is listed as “least toxic”. Further, the “H3K27me3 mark after treatment” value in series [2] is “suppressed the H3K27me3 mark”. Besides, in series [3], the “basal oxygen consumption after EZH2 inhibition” value is listed as “suppressed”.
Take `COc1cc2c(cc1OCCCN1CCCC1)N=C(N)C21CCC1` [A366]: the “sensitivity of organoids to G9a inhibition (MTT)” value in series [1] (in combination with gemcitabine, tumor-organoids) was “not sensitive”. For the same compound, the “toxicity to normal cells” value in the series on progenitor-organoids is “least toxic”.
